The results in this text go back to ChEMBL document CHEMBL1149063, “Secondary metabolites by chemical screening, 26.1 7-O-beta-D-galactosyl-brefeldin A via transglycosylation with Penicillium brefeldianum” (J Nat Prod, 1994).

Values after ≈ are worked out from the molar mass of the structure shown.

A short description of data set [1]: Toxicity in po dosed rat. It is filed as organism-based. The following applies: in vivo.
For a further data set, the system named is A549. Description: Antiproliferative activity against human A549 cells by MTT reduction assay. In kind it is functional, cell-based. On the technique in general: Tetrazolium assays rely on reduction of a dye to a coloured formazan, in cell work by metabolically active cells.
Another data set deals with L1210. Description: Antiproliferative activity against mouse L1210 cells by MTT reduction assay. It is filed as functional, cell-based.
The subject of the next data set is HT-29. Kind of data set: Antiproliferative activity against human HT-29 cells by MTT reduction assay. In kind it is functional, cell-based.

By LD50 is commonly meant the dose expected to kill half of the subjects tested. Regarding `C[C@H]1CCC/C=C/[C@@H]2C[C@H](O)C[C@H]2[C@H](O)/C=C/C(=O)O1` [BREFELDIN A], the 50% lethal dose (LD50) in data set [1] came to 275 mg/kg.
As usually defined, the IC50 is the midpoint of a concentration-inhibition curve. A low value points to higher potency. Regarding `C[C@H]1CCC/C=C/[C@@H]2C[C@H](O[C@@H]3O[C@H](CO)[C@H](O)[C@H](O)[C@H]3O)C[C@H]2[C@H](O)/C=C/C(=O)O1` [7-O-BETA-D-GALACTOSYL-BREFELDIN A], the IC50 came to 1.2 µg/mL (≈ 2.71 µM) with A549, 10 µg/mL (≈ 22.6 µM) in the data set on L1210 and 1.3 µg/mL (≈ 2.94 µM) in the data set with HT-29.
